# Source: patent US12685312B2, “Sulfonamide apyrase inhibitors” (Texas Crop Science, Inc., priority 2022, dated 2026)
# Tests used:
# [1] = tested on: apyrase; experiment: Screen for apyrase inhibitors (Method 1, in vitro phosphate-release absorbance assay); format: biochemical; conditions: inhibitor conc at 1 mM stock, 1 hr room temperature, absorbance 630 nm; rounded average of two assay results
# Outline: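 Phosphate-release colorimetric assay (Windsor method) in 60 mM Hepes, 3 mM MgCl2, 3 mM CaCl2, 3 mM ATP, pH 6.5, with compound or DMSO control added. Released phosphate developed with ammonium molybdate and ascorbic acid/TCA, then stopped with citrate/acetic acid.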
# [2] = tested on: plant pathogenic fungi (Zymoseptoria tritici strains, Microdochium nivale); experiment: In vitro combination assay (Method 2), overall comparison with Roux Compound 13; format: cell-based; conditions: azoxystrobin, fluxapyroxad, desthio prothioconazole; three fungal strains
# Experimental: Method 2: In Vitro Assessment of Combination Activity
# Selected compounds were assessed in combination with fungicides against a range of commercially important plant pathogenic fungi.
# The test was conducted as follows. A fungicide was applied to a fungal plant pathogen at a rate slightly below that at which it gave any control, in combination with a suitable dose of the test compound. The test compound was recorded as active if control of the pathogen was observed.
# In more detail, the test was conducted as follows. For each combination of fungicide, pathogen and test compound, the following wells were used. Well 1 contained a fungal pathogen growing on agar, and a fungicide at a rate just below that at which it gave any control of the pathogen. Well 2 was the same as Well 1, except that the test compound was also added at Rate 1. Well 3 was the same as Well 2, except that the test compound was added at Rate 2, where Rate 2 was higher than Rate 1. Finally, as a benchmark, Well 4 was the same as Well 1, except that it contained the fungicide at a higher rate, at which it gave partial control of the pathogen. Each of the Wells 1 to 4 were run in duplicate, giving a total of 8 wells for each combination of fungicide, pathogen and test compound. For each well, after a suitable period of incubation, a visual assessment of the % control of the pathogen by the fungicide was made.
# The following fungicides were used in this assay: azoxystrobin, fluxapyroxad, and desthio prothioconazole. The following fungal pathogens were used in this assay: First, a strain of Zymoseptoria tritici with a reduced susceptibility to strobilurin fungicides; second a strain of Zymoseptoria tritici with a reduced susceptibility to SDHI fungicides (i.e., those that inhibit succinate dehydrogenase); and third, Microdochium nivale.
compound,measurement,setting,value
"Cc1ccccc1NS(=O)(=O)c1cc(C(=O)Nc2cccc([N+](=O)[O-])c2)ccc1Cl [I-2, 4-chloro-N-(3-nitrophenyl)-3-(N-(o-tolyl)sulfamoyl)benzamide]",% Inhibition of Apyrase,[1],77%
same,enhancer activity in the combination assay compared with Roux Compound 13,[2],superior enhancer activity than Roux Compound 13
"N#Cc1cccc(NC(=O)c2cccc(S(=O)(=O)Nc3ccc(Br)cc3)c2)c1 [I-16, 3-(N-(4-bromophenyl)sulfamoyl)-N-(3-cyanophenyl)benzamide]",% Inhibition of Apyrase,[1],54%
same,enhancer activity in the combination assay compared with Roux Compound 13,[2],superior enhancer activity than Roux Compound 13
"COc1ccc(NC(=O)c2cccc(S(=O)(=O)Nc3ccc(Br)cc3)c2)cc1 [I-18, 3-(N-(4-bromophenyl)sulfamoyl)-N-(4-methoxyphenyl)benzamide]",% Inhibition of Apyrase,[1],51%
same,enhancer activity in the combination assay compared with Roux Compound 13,[2],superior enhancer activity than Roux Compound 13
"O=C(Nc1ccc(Br)cc1)c1cccc(S(=O)(=O)Nc2cc(C(F)(F)F)ccc2Cl)c1 [I-178, N-(4-bromophenyl)-3-(N-(2-chloro-5-(trifluoromethyl)phenyl)sulfamoyl)benzamide]",% Inhibition of Apyrase,[1],76%
same,enhancer activity in the combination assay compared with Roux Compound 13,[2],superior enhancer activity than Roux Compound 13
"O=C(Nc1cccc(Br)c1)c1cccc(S(=O)(=O)Nc2ccc3c(c2)OCO3)c1 [I-186, 3-(N-(benzo[d][1,3]dioxol-5-yl)sulfamoyl)-N-(3-bromophenyl)benzamide]",% Inhibition of Apyrase,[1],72%
same,enhancer activity in the combination assay compared with Roux Compound 13,[2],superior enhancer activity than Roux Compound 13
"Cc1cc(NC(=O)c2cccc(NS(=O)(=O)c3ccc(F)c(F)c3)c2)ccc1Br [I-191, N-(4-bromo-3-methylphenyl)-3-((3,4-difluorophenyl)sulfonamido)benzamide]",% Inhibition of Apyrase,[1],76%
same,enhancer activity in the combination assay compared with Roux Compound 13,[2],superior enhancer activity than Roux Compound 13
"O=C(Nc1ccc(Br)cc1)c1cccc(S(=O)(=O)Nc2ccc3c(c2)OCO3)c1 [I-201, 3-(N-(benzo[d][1,3]dioxol-5-yl)sulfamoyl)-N-(4-bromophenyl)benzamide]",% Inhibition of Apyrase,[1],77%
same,enhancer activity in the combination assay compared with Roux Compound 13,[2],superior enhancer activity than Roux Compound 13
"Cc1ccc(C(=O)Nc2cccc(NS(=O)(=O)c3ccccc3)c2)cc1F [I-209, 3-fluoro-4-methyl-N-(3-(phenylsulfonamido)phenyl)benzamide]",% Inhibition of Apyrase,[1],75%
same,enhancer activity in the combination assay compared with Roux Compound 13,[2],superior enhancer activity than Roux Compound 13
"O=C(Nc1cccc(C(F)(F)F)c1)c1cccc(NS(=O)(=O)c2cccc(C(F)(F)F)c2)c1 [I-217, N-(3-(trifluoromethyl)phenyl)-3-((3-(trifluoromethyl)phenyl)sulfonamido) benzamide]",% Inhibition of Apyrase,[1],70%
same,enhancer activity in the combination assay compared with Roux Compound 13,[2],superior enhancer activity than Roux Compound 13
"O=C(Nc1cccc(S(=O)(=O)Nc2ccc(Br)cc2)c1)C1CCCCC1 [I-219, N-(3-(N-(4-bromophenyl)sulfamoyl)phenyl) cyclohexanecarboxamide]",% Inhibition of Apyrase,[1],73%
same,enhancer activity in the combination assay compared with Roux Compound 13,[2],superior enhancer activity than Roux Compound 13
"O=C(Nc1cccc(S(=O)(=O)Nc2ccc(Br)cc2)c1)c1ccc(Cl)nc1 [I-221, N-(3-(N-(4-bromophenyl)sulfamoyl)phenyl)-6-chloronicotinamide]",% Inhibition of Apyrase,[1],67%
same,enhancer activity in the combination assay compared with Roux Compound 13,[2],superior enhancer activity than Roux Compound 13
"O=C(/C=C/c1ccco1)Nc1cccc(S(=O)(=O)Nc2ccc(Br)cc2)c1 [I-226, (E)-N-(3-(N-(4-bromophenyl)sulfamoyl)phenyl)-3-(furan-2-yl)acrylamide]",% Inhibition of Apyrase,[1],73%
same,enhancer activity in the combination assay compared with Roux Compound 13,[2],superior enhancer activity than Roux Compound 13
"N#Cc1ccccc1S(=O)(=O)Nc1cccc(C(=O)Nc2cccc(C(F)(F)F)c2)c1 [I-229, 3-((2-cyanophenyl)sulfonamido)-N-(3-(trifluoromethyl)phenyl)benzamide]",% Inhibition of Apyrase,[1],66%
same,enhancer activity in the combination assay compared with Roux Compound 13,[2],superior enhancer activity than Roux Compound 13
"COC(=O)c1ccc(NC(=O)c2ccccc2S(=O)(=O)N(C)c2ccccc2)cc1 [I-233, methyl 4-(2-(N-methyl-N-phenylsulfamoyl)benzamido)benzoate]",% Inhibition of Apyrase,[1],61%
same,enhancer activity in the combination assay compared with Roux Compound 13,[2],superior enhancer activity than Roux Compound 13
"O=C(Nc1cccc(C(F)(F)F)c1)c1cccc(NS(=O)(=O)c2cccc(Cl)c2)c1 [I-317, 3-((3-chlorophenyl)sulfonamido)-N-(3-(trifluoromethyl)phenyl)benzamide]",% Inhibition of Apyrase,[1],69%
same,enhancer activity in the combination assay compared with Roux Compound 13,[2],superior enhancer activity than Roux Compound 13
"COc1cc(Cl)c(C)cc1NC(=O)c1ccccc1S(=O)(=O)N(C)c1ccccc1 [I-807, N-(4-chloro-2-methoxy-5-methylphenyl)-2-(N-methyl-N-phenylsulfamoyl)benzamide]",% Inhibition of Apyrase,[1],82%
same,enhancer activity in the combination assay compared with Roux Compound 13,[2],superior enhancer activity than Roux Compound 13
"O=C(Nc1ccc(S(=O)(=O)Nc2ccccc2Cl)cc1)c1ccc2c(c1)OCCO2 [I-994, N-(4-(N-(2-chlorophenyl)sulfamoyl)phenyl)-2,3-dihydrobenzo[b][1,4]dioxine-6-carboxamide]",% Inhibition of Apyrase,[1],47%
"COc1ccccc1C(=O)Nc1ccc(S(=O)(=O)Nc2cccc(Cl)c2)cc1 [I-995, N-(4-(N-(3-chlorophenyl)sulfamoyl)phenyl)-2-methoxybenzamide]",% Inhibition of Apyrase,[1],46%
"COc1ccc(NS(=O)(=O)c2ccc(NC(=O)c3ccccc3OC(F)F)cc2)cc1OC [I-996, 2-(difluoromethoxy)-N-(4-(N-(3,4-dimethoxyphenyl)sulfamoyl)phenyl)benzamide]",% Inhibition of Apyrase,[1],46%
"COc1ccccc1NS(=O)(=O)c1ccc(NC(=O)c2cccc(C#N)c2)cc1 [I-997, 3-cyano-N-(4-(N-(2-methoxyphenyl)sulfamoyl)phenyl)benzamide]",% Inhibition of Apyrase,[1],43%
"O=C(Nc1ccc(S(=O)(=O)Nc2cccc(C(F)(F)F)c2)cc1)c1cccc(F)c1 [I-998, 3-fluoro-N-(4-(N-(3-(trifluoromethyl)phenyl)sulfamoyl)phenyl) benzamide]",% Inhibition of Apyrase,[1],34%
"COc1ccccc1NS(=O)(=O)c1ccc(NC(=O)c2ccc(C#N)cc2)cc1 [I-999, 4-cyano-N-(4-(N-(2-methoxyphenyl)sulfamoyl)phenyl)benzamide]",% Inhibition of Apyrase,[1],29%
"O=C(Nc1ccc(S(=O)(=O)Nc2cccc(C(F)(F)F)c2)cc1)c1ccccc1 [I-1000, N-(4-(N-(3-(trifluoromethyl)phenyl)sulfamoyl)phenyl) benzamide]",% Inhibition of Apyrase,[1],28%
"COc1ccc(NS(=O)(=O)c2ccc(NC(=O)c3ccc(Cl)cc3)cc2)cc1 [I-1001, 4-chloro-N-(4-(N-(4-methoxyphenyl)sulfamoyl)phenyl)benzamide]",% Inhibition of Apyrase,[1],16%
"COc1ccc(NS(=O)(=O)c2ccc(NC(=O)c3ccc(F)cc3)cc2)cc1 [I-1002, 4-fluoro-N-(4-(N-(4-methoxyphenyl)sulfamoyl)phenyl)benzamide]",% Inhibition of Apyrase,[1],3%
"Cc1ccnn1-c1ccc(C(=O)Nc2ccc(NS(=O)(=O)c3ccc4c(c3)OCCO4)cc2)cc1 [I-1003, N-(4-((2,3-dihydrobenzo[b][1,4]dioxine)-6-sulfonamido)phenyl)-4-(5-methyl-1H-pyrazol-1-yl)benzamide]",% Inhibition of Apyrase,[1],47%
"CCOc1ccc(Br)cc1S(=O)(=O)Nc1ccc(NC(=O)c2ccccc2F)cc1 [I-1004, N-(4-((5-bromo-2-ethoxyphenyl)sulfonamido)phenyl)-2-fluorobenzamide]",% Inhibition of Apyrase,[1],46%
"COc1ccc(NS(=O)(=O)c2cccc(C(=O)Nc3ccc(C#N)cc3)c2)cc1 [I-1006, N-(4-cyanophenyl)-3-(N-(4-methoxyphenyl)sulfamoyl)benzamide]",% Inhibition of Apyrase,[1],42%
"O=C(Nc1cccc(OC(F)F)c1)c1cccc(S(=O)(=O)Nc2cccc(C(F)(F)F)c2)c1 [I-1007, N-(3-(difluoromethoxy)phenyl)-3-(N-(3-(trifluoromethyl)phenyl)sulfamoyl)benzamide]",% Inhibition of Apyrase,[1],33%
"Cc1ccc(NS(=O)(=O)c2cccc(C(=O)Nc3cccc(S(N)(=O)=O)c3)c2)cc1 [I-1008, N-(3-sulfamoylphenyl)-3-(N-(p-tolyl)sulfamoyl)benzamide]",% Inhibition of Apyrase,[1],29%
"Cc1n[nH]c(C)c1CCC(=O)Nc1cccc(NC(=O)c2cccc(S(=O)(=O)Nc3ccc(Br)cc3)c2)c1 [I-1009, 3-(N-(4-bromophenyl)sulfamoyl)-N-(3-(3-(3,5-dimethyl-1H-pyrazol-4-yl)propanamido)phenyl)benzamide]",% Inhibition of Apyrase,[1],26%
